Tested on: serotonin receptors
Test: Superoxide anion production: serotonin effect on PMA-induced oxidative burst in monocytes
Type: cell-based
Settings: drugs 10 µM, 1 h; serotonin 1 µM; PMA 1 µM 30 min; human monocytes
Method: Human monocytes were isolated from healthy anonymous human buffy coats (provided by the Transfusion Service of Ospedale Maggiore della Carità, Novara, Italy) by the standard technique of dextran sedimentation and Histopaque (density = 1.077 g cm^3, Sigma-Aldrich, Milano, Italy) gradient centrifugation (400×g, 30 min, room temperature) and recovered by fine suction at the interface, as described previously. Purified monocytes populations were obtained by adhesion (90 min, 37 °C, 5% CO2) in serum-free RPMI 1640 medium (Sigma-Aldrich, Milano, Italy) supplemented with 2 mM glutamine and antibiotics. Cell viability (trypan blue dye exclusion) was usually >98%.
All the experiments were performed in triplicate using cells isolated from each single donor.
Monocytes (250,000 cells/well) were treated for 1 h with the indicated drugs (10 µM) with or without serotonin (1 µM). Then, cells were stimulated with phorbol 12-myristate 13-acetate (PMA; Sigma-Aldrich, Milano, Italy) 1 µM for 30 min. PMA is a well-known stimulus that induces a strong and significant respiratory burst via PKC activation. Superoxide anion production was then evaluated by the superoxide dismutase (SOD)-sensitive cytochrome C (CytC) reduction assay and expressed as nmoles CytC reduced/10^6 cells/30 min, using an extinction coefficient of 21.1 mM. To avoid interference with spectrophotometrical recordings, cells were incubated with RPMI 1640 without phenol red, antibiotics, and FBS.
To this purpose, we measured the effect of serotonin on PMA-induced oxidative burst in human monocytes. As previously shown, 1 µM serotonin reverses the oxidative burst to control values.
Figure 8. […] Results are expressed as n moles of reduced cytochrome C/10^6 cells. Data are means ± SEM of 10 independent experiments performed in triplicate.

- effect on serotonin action on PMA-induced oxidative burst: had no effect
SMILES: Cc1ccc2c(C(=O)CN3CCN(C(=O)c4ccco4)CC3)c(C)[nH]c2c1 [Amb639752]

Reference: publication PMC6844378, “Structure activity relationship studies on Amb639752: toward the identification of a common pharmacophoric structure for DGKα inhibitors” (Journal of Enzyme Inhibition and Medicinal Chemistry, 2019)
